Data taken from PMC6694155, “PTPσ inhibitors promote hematopoietic stem cell regeneration” (Nature Communications, 2019).
Where “and” joins values, the source holds several entries; their conditions need not be identical. Equal entries are not always repeated.

How the values were obtained:
C57BL/6 mice = assay: Hematopoietic regeneration at day +10 after 750 cGy TBI (PB counts, BM KSL and progenitor cells, CFCs); type: in vivo, mouse; parameters: Supplementary Figure 4c: BFU-E / Supplementary Figure 5e: CFU-GM / Supplementary Figure 5e: BFU-E / Supplementary Figure 5e: CFU-GEMM: unit not given here
Protocol: Femurs and tibiae were collected from killed C57BL/6 or Ptprs^−/− mice and flushed with IMDM containing 10% FBS and 1% penicillin–streptomycin for BM cells. PB was collected through sub-mandibular puncture. Cells were filtered through a 40 μM strainer and then treated with ACK lysis buffer (Sigma Aldrich) before antibody staining for flow cytometry. For KSL and CD150^+CD48^−KSL cell analysis, BM cells were stained with allophycocyanin (APC)-and Cy7-conjugated anti-mouse Sca1 (BD Biosciences, #560654, 1:100), phycoerythrin (PE)-conjugated anti-mouse c-kit (BD Biosciences, #553355, 1:100), V450 lineage cocktail (BD Biosciences, 561301, 1:10), Alexa Fluor 488-conjugated anti-mouse CD48 (BioLegend, #103414, 1:100), and Alexa Fluor 647-conjugated anti-mouse CD150 (Biolegend, #115918, 1:100) antibodies. For MEP, CMP, GMP, and CLP cell analysis, BM cells were stained with APC-Cy7-conjugated anti-mouse Sca1 (BD Biosciences, #560654, 1:100), PE-conjugated anti-mouse ckit (BD Biosciences, #553355, 1:100), V450 lineage cocktail (BD Biosciences, #561301; 1:10), Alexa Fluor 488-conjugated anti-mouse CD127 (BD Biosciences, #561533, 1:100), Alexa Fluor 647-conjugated anti-mouse CD34 (BD Biosciences, #560230; 1:100), and BV605-conjugated anti-mouse CD16/32 antibodies (BD Biosciences, #563006; 1:100). For donor engraftment analysis in transplanted mice, PB or BM cells were stained with BV605-conjugated anti-mouse CD45.2 (BioLegend, #109841, 1:100), fluorescein isothiocyanate (FITC)-conjugated anti-mouse CD45.1 (BD Biosciences, #553775, 1:100), PE-conjugated anti-mouse Mac-1 (BD Biosciences, #557397, 1:100) and anti-mouse Gr1 (BD Biosciences, #553128, 1:100), V450-conjugated anti-mouse CD3 (BD Biosciences, #561389, 1:100), and APC-Cy7-conjugated anti-mouse B220 (BD Biosciences, 552094, 1:100) antibodies.
For survival studies, 10-week-old female C57BL/6 mice were irradiated with 750 cGy TBI, which is lethal for ~50% of C57BL/6 mice by day + 30 (LD50/30), using a Shepherd Cesium-137 irradiator. Twenty four hours post irradiation, mice were administered daily subcutaneous injections of 5 mg/kg DJ001 or DJ009, or vehicle in a volume of 100 μL for 10 days. DJ001 or DJ009 injections were prepared in PBS, 0.5% Tween 80, and 10% DMSO. Corresponding vehicle injections contained PBS, 10% DMSO, and 0.5% Tween 80. PB complete blood counts were measured using a Hemavet 950 instrument (Drew Scientific) at day + 10 post irradiation. For hematopoietic analysis, BM cells were collected at day + 10 post irradiation. To study whether DJ001 increased survival rates through activation of RAC signaling, the RAC inhibitor, EHT1864 (Selleckchem), was dissolved in PBS and administered intraperitoneally, 40 mg/kg every other day, to 750 cGy-irradiated mice until day + 10.
CFC assays (colony-forming unit-granulocyte monocyte), burst-forming unit-erythroid, and CFU-GEMM were performed using MethoCult GF M3434 (Stemcell Technologies)[6]. For all in vitro assays, BM CD34^−KSL cells, KSL cells, and Lin^− cells were cultured in TSF media (IMDM, 10% FBS, 1% pen-strep, 20 ng/mL recombinant mouse TPO, 125 ng/mL recombinant mouse SCF, 50 ng/mL recombinant mouse Flt3 ligand). Recombinant mouse SCF, Flt3 ligand, and TPO were purchased from R&D Systems. For competitive repopulation assays, BM cells were isolated from donor 10–12-week-old female CD45.2^+ mice. Recipient 10-week-old female CD45.1^+ B6.SJL mice were irradiated with 950 cGy TBI using a Cs137 irradiator and donor BM cells were administered via tail vein injection along with a competing dose of 1 × 10^5 non-irradiated host BM cells. Multilineage donor hematopoietic cell engraftment was measured in the PB by flow cytometry.

RAC1-GTP in BM KSL cells = assay: RAC1-GTP intracellular flow cytometry of BM KSL cells; type: cell-based, mouse; parameters: Figure 3c: RAC1-GTP in BM KSL cells: unit not given here; conditions: for Figure 3c: RAC1-GTP in BM KSL cells: individual replicates
Protocol: Intracellular flow cytometric analysis was performed on irradiated (300 cGy) or non-irradiated, sorted KSL cells after treatment with 1 μg/mL DJ001 or control (equal volumes of DMSO) for 24 h. At 24 h after irradiation, cells were fixed with 4% PFA for 10 min, followed by permeabilization using 0.25% saponin in PBS. Cells were washed again and stained with antibody at the recommended concentrations for 30 min at RT. Intracellular antibodies and phospho-flow antibodies used were as follows: FITC-conjugated anti-BCL-XL (Abcam, #26148, 1:100), active RAC1-GTP antibody (NewEast Biosciences, #26903, 1:100) and anti-PAK1 (phospho S144) + PAK2 (phospho S141) + PAK3 (phospho S154) antibody (Abcam, #40795, 1:100), and FITC-conjugated goat anti-rabbit IgG H&L (Abcam, #97050, 1:200).

[1] = day +10 after 750 cGy TBI, individual mice
[2] = day +10 after 750 cGy TBI, replicates
[3] = day +10 after 750 cGy, 5 mg/kg s.c. daily
[4] = day +10 after 750 cGy, 5 mg/kg s.c. daily, 5 mg/kg
[5] = after 750 cGy TBI, individual mice

With `O=C(/C=C\Nc1cccc([N+](=O)[O-])c1)c1ccccc1` [DJ001, (Z)-3-((3-nitrophenyl)amino)-1-phenylprop-2-en-1-one] as the compound, how does the “recovery of BM KSL cells, ckit+sca-1−lin− myeloid progenitors and CFCs following TBI” value (C57BL/6 mice; 750 cGy, 5 mg/kg s.c. daily day +1 to +10) read?
Its value is “accelerated the recovery”.

And the “percentages of BM MEPs, CMPs, GMPs, or PB myeloid, B-cell or T-cell populations” value (C57BL/6 mice; day +10 after 750 cGy)?
The value was “did not alter the percentages”.

And the “percentages of BM common lymphoid progenitors (CLPs)” value (C57BL/6 mice; day +10 after 750 cGy)?
Its value is “modest increase”.

And the “Supplementary Figure 4d (center left panel): BM progenitor cells” value (C57BL/6 mice; [1])?
The value was 0.05534 and 0.6345 and 0.3797 and 0.1366 and 0.1346 and 0.08271 and 0.1205 and 0.1142 and 0.1459 and 0.6791.

And the “Supplementary Figure 4d (center right panel): BM progenitor cells” value (C57BL/6 mice; [1])?
Its value is 0.1315 and 0.5274 and 0.7758 and 0.2631 and 0.4325 and 0.1366 and 0.1603 and 0.4187 and 0.3345 and 1.367.

And the “Supplementary Figure 4d (left panel): BM progenitor cells” value (C57BL/6 mice; [1])?
Its value is 0.1083 and 0.8819 and 0.5478 and 0.2535 and 0.1578 (2×) and 0.2622 and 0.4013 and 0.1995 and 0.6663.

And the “Supplementary Figure 4d (right panel): BM progenitor cells” value (C57BL/6 mice; [1])?
Its value is 0.07453 and 0.07514 and 0.1093 and 0.1068 and 0.06267 and 0.05116 and 0.04956 and 0.2046 and 0.1087.

What about the “Supplementary Figure 4c: BFU-E” value (C57BL/6 mice; [2]) of the same compound?
Its value is 0 (2×) and 2 and 1 (3×).

And the “Supplementary Figure 4c: CFU-GEMM” value (C57BL/6 mice; [2])?
Its value is 0 and 2 and 1 (2×) and 3 (2×).

And the “Supplementary Figure 4c: CFU-GM” value (C57BL/6 mice; [2])?
Its value is 5 (3×) and 7 and 6 and 10.

What about the “PB lymphocytes compared with vehicle” value (C57BL/6 mice; [3]) of the same compound?
The value was “more than twofold increased”.

And the “PB neutrophils compared with vehicle” value (C57BL/6 mice; [3])?
The value was “more than twofold increased”.

What about the “PB white blood cells compared with vehicle” value (C57BL/6 mice; [3]) of the same compound?
Its value is “more than twofold increased”.

And the “PB WBCs per mouse (Figure 2c left panel)” value (C57BL/6 mice; [4])?
Its value is 0.86 and 0.62 and 0.68 and 0.76 and 0.34 and 0.7 and 0.52 and 0.64.

What about the “PB lymphocytes (LYMPH) per mouse (Figure 2c right panel)” value (C57BL/6 mice; [4]) of the same compound?
The value was 0.38 and 0.39 and 0.4 and 0.45 and 0.24 and 0.36 and 0.33 and 0.42 and 0.37.

And the “PB neutrophils (NEU) per mouse (Figure 2c center panel)” value (C57BL/6 mice; [4])?
The value was 0.27 and 0.16 and 0.18 and 0.17 and 0.06 and 0.2 and 0.12.

And the “numbers of BM KSL cells per mouse (Figure 2e center left panel)” value (C57BL/6 mice; day +10 post 750 cGy)?
Its value is 15.7 and 9.66 and 15 and 10.6 and 9.42 and 14.8 and 11.8 and 11.5 and 10.7.

What about the “numbers of BM c-kit+sca-1− cells per mouse (Figure 2e right panel)” value (C57BL/6 mice; day +10 post 750 cGy) of the same compound?
Its value is 1.33 and 6.87 and 4.4 and 4.05 and 3.27 and 5.18 and 7.29 and 2.89 and 7.28.

What about the “percentages of BM KSL cells per mouse (Figure 2e left panel)” value (C57BL/6 mice; day +10 post 750 cGy) of the same compound?
The value was 0.749% and 0.807% and 1.138% and 0.766% and 0.608% and 0.862% and 0.365% and 1.197% and 0.783%.

And the “percentages of BM c-kit+sca-1− cells per mouse (Figure 2e center right panel)” value (C57BL/6 mice; day +10 post 750 cGy)?
Its value is 1.717% and 4.73% and 3.337% and 2.916% and 2.11% and 3.013% and 2.25% and 3.004% and 5.312%.

And the “increase of percentages and numbers of BM KSL stem/progenitor cells compared to irradiated control mice” value (C57BL/6 mice; irradiated mice, day +10)?
Its value is 2 fold.

What about the RAC1-GTP levels (RAC1-GTP in BM KSL cells; BM KSL cells from Ptprs+/+ mice) of the same compound?
Its RAC1-GTP levels is “rapid increase in RAC1-GTP levels”.

And the RAC1-GTP levels (RAC1-GTP in BM KSL cells; BM KSL cells from Ptprs−/− mice)?
The RAC1-GTP levels was “no change in RAC1-GTP levels”.

And the “Figure 3c: RAC1-GTP in BM KSL cells” value (RAC1-GTP in BM KSL cells; Ptprs+/+ cells)?
Its value is 42 and 37.6 and 37.8 and 37.4 and 37.3.

And the “Figure 3c: RAC1-GTP in BM KSL cells” value (RAC1-GTP in BM KSL cells; Ptprs-/- cells)?
Its value is 84.6 and 83.8 and 81.9 and 85.5 and 85.6.

For `O=C(/C=C\Nc1cc(F)cc(F)c1)c1ccccc1` [DJ009, (Z)-3-((3,5-difluorophenyl)amino)-1-phenylprop-2-en-1-one], which “PB WBCs, neutrophils and lymphocytes, BM KSL cells, and CFCs” value (C57BL/6 mice; 750 cGy TBI, 5 mg/kg DJ009 daily for 10 days) is on record?
Its value is “significant increase”.

What about the “Supplementary Figure 5c (center panel): PB counts” value (C57BL/6 mice; [5]) of the same compound?
The value was 0.08 and 0.19 and 0.29 and 0.1 and 0.39 and 0.13 and 0.2.

And the “Supplementary Figure 5c (left panel): PB counts” value (C57BL/6 mice; [5])?
Its value is 1.4 and 0.72 and 1.76 and 0.4 and 1.62 and 0.52 and 0.94.

What about the “Supplementary Figure 5c (right panel): PB counts” value (C57BL/6 mice; [5]) of the same compound?
The value was 1.27 and 0.4 and 1.32 and 0.26 and 0.96 and 0.29 and 0.63.

What about the “Supplementary Figure 5d (center panel): BM cells” value (C57BL/6 mice; [5]) of the same compound?
Its value is 4.83 and 5.26 and 6.06 and 14.68 and 8.28 and 9.38 and 7.6.

What about the “Supplementary Figure 5d (left panel): BM cells” value (C57BL/6 mice; [5]) of the same compound?
Its value is 1.079 and 0.621 and 0.841 and 0.709 and 1.581 and 1.301 and 0.94.

And the “Supplementary Figure 5e: BFU-E” value (C57BL/6 mice; after 750 cGy TBI, replicates)?
The value was 0 (6×) and 1 (2×) and 2.

What about the “Supplementary Figure 5e: CFU-GEMM” value (C57BL/6 mice; after 750 cGy TBI, replicates) of the same compound?
Its value is 1 and 0 (3×) and 3 and 2 (3×) and 4.

And the “Supplementary Figure 5e: CFU-GM” value (C57BL/6 mice; after 750 cGy TBI, replicates)?
Its value is 5 and 4 and 2 and 6 and 8 and 7 and 19 and 18 and 15.
